This is an account of results in patent US20220041578A1, “ISOINDOLINE COMPOUND, AND PREPARATION METHOD, PHARMACEUTICAL COMPOSITION, AND APPLICATION OF ISOINDOLINE COMPOUND” (Shanghai Institute of Meteria Medica, Chinese Academy of …, priority 2018, published 2022).

What all share (type): cell-based
One assay concerns IFNγ. Briefly: IFNγ expression change in anti-human CD3 stimulated PBMC (ELISA). The conditions noted are these: compound 10 nM, anti-human CD3 10 ug/ml, 24 hours. On the procedure:
(§1) All operations of this experiment were carried out according to the conventional experimental process of this kind of experiment at present. Peripheral blood from healthy volunteers was collected by routine standard procedure and cultured in 1640 medium (+10% FBS) to obtain PBMC. After recovery, PBMC was centrifuged and resuspended in serum-free medium. After counting, adjusted the density to be 6.25×10^5/ml; then inoculated 160 ul to a 96-well plate, 2 holes each, 1×10^5/well; 20 ul 10× compound and DMSO were added, and incubated for 1 hour in an incubator; then 20 ul 10× anti-human CD3 was added resulting the final concentration of 10 ug/ml and incubated in an incubator for 24 hours. Centrifuged the cell plate at 1500 rpm and aspirated 50 ul supernatant according to the ELISA operation. After operating according to the kit, a microplate reader was used to read at 450 nm. The concentration of compound was 10 nM, and DMSO was added as control group. Materials used in this experiment: 96 well plate (Corning, #3599), ELISA kit (Thermo), LPS (Sigma, USA). It was found from the test results of the following table that the compounds of the examples of the present invention could be used to regulate the expression of IFNγ.
In general terms: In an ELISA, binding on a coated surface is turned into a signal by an enzyme label.

Assay [1] relates to prostate cancer cells PC-3. The experiment in a line: Proliferation of other tumor cells, PC-3 (WST-8). The conditions noted are these: Homo sapiens, 96 h, PC-3 cells, 4 days, read-out: Inhibitory activity on proliferation, PC-3 (IC50). How it is done:
(§2) The human triple negative breast cancer cells MDA-MB-468 and MDA-MB-231 used in this experiment were purchased from the Shanghai Cell Bank, in which L-15 medium added with 10% fetal bovine serum (FBS) and 1% double antibody was used. At 37° C., MDA-MB-468 and MDA-MB-231 cells were cultured in an incubator without CO2. Colorectal cancer cells HCT-116 were cultured in McCOY's 5A medium with 1% double antibody and 10% fetal bovine serum (FBS); prostate cancer cells DU145 were cultured in MEM medium with 1% double antibody and 10% fetal bovine serum (FBS); prostate cancer cells PC-3 were cultured in F-12 K medium with 1% double antibody and 10% fetal bovine serum (FBS); grew at 37° C., 5% CO2.
(§3) In the cell activity test experiment, 90 μL cell suspension with appropriate concentration was added to a 96-well cell culture plate according to the cell growth, each compound to be tested was gradient diluted with the corresponding medium, 10 μL diluted compound was added to 90 μL cells, and then incubated at 37° C. for 4 days. Cell proliferation was analyzed by WST-8, which could be reduced by lactate dehydrogenase in the cells to a yellow formazan. 10 μL of WST-8 reagent (DOJINDO) was added to the cells and reacted for more than 1 hour at 37° C., DMSO-treated cells were used as […]. The absorption value of 490 nm was read by enzyme-labeled plate, and the absorption value of 690 nm was taken as the background value, and OD490-OD690 was taken as the final original data, and the data was processed by GraphPad Prism6 software. The formula for calculating the inhibition rate of the compound was: inhibition rate=(ODDMSO−ODcompound)/(ODDMSO−Oblank)×100%. The compound's proliferation inhibition IC50 was fitted by Graph Pad Prism 5.0. The experiment was repeated three times, and three parallel experiments were used to calculate the average and standard deviation each time. The cell viability test results were shown in Table 4: A means cell viability IC50<1 μM, B means cell viability 1 μM≤IC50≤20 μM, C means cell viability IC50>20 μM, NT means not tested.
For orientation: Formazan colour is commonly taken as a measure of viable cells.

The subject of another assay is IL-2. The experiment in a line: IL-2 expression change in anti-human CD3 stimulated PBMC (ELISA). As to conditions: compound 10 nM, anti-human CD3 10 ug/ml, 24 hours. How it is done:
as §1, with “USA).” for “USA). It was found from the test results of the following table that the compounds of the examples of the present invention could be used to regulate the expression of IFNγ.”

Another assay deals with Mino cells. The experiment in a line: Effect of the compound on the proliferation of Mino cells (MTS). The conditions noted are these: Homo sapiens, 72 h, 3 days, read-out: Inhibitory activity (IC50). The essentials:
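Mino cells, 8000/well, treated 3 days at 37 °C/5% CO2 with 5-fold compound dilutions from 10 mM stock (0.2% DMSO final). MTS added for 3-4 h; OD490 minus OD690 read, inhibition relative to DMSO and blank, IC50 fitted. Three repeats, each in triplicate.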

In assay [2] the test system is prostate cancer cells DU145. The experiment in a line: Proliferation of other tumor cells, DU145 (WST-8). The conditions noted are these: Homo sapiens, DU-145, 96 h, 4 days, read-out: Inhibitory activity on proliferation, DU145 (IC50). On the procedure: as §2, §3

Structures are written as SMILES. pIC50: −log10 of the molar value. Bounds are passed on as bounds.

Turning to `Nc1cccc2c1CN(C1CCC(=O)NC1=O)C2=O` (centres unmarked) [Lenalidomide, lenalidomide, reference compound], the “Increase multiple of IFNγ expression” value in the assay on IFNγ is recorded as over 1.5. Besides, the pIC50 (in assay [1]; with Mino cells; in assay [2]) was under 4.70 in each case. Moreover, the “Increase multiple of IL-2 Expression” value with IL-2 is given as over 3.
